We go through twelve compounds from patent US10774086B2, “GSK-3 inhibitors” (BRISTOL-MYERS SQUIBB COMPANY, priority 2016, dated 2020).

One experiment deals with pTau. Description: pTau assay. The format is cell-based.
Another experiment addresses GSK3α (Homo sapiens (Human), UniProt P49840). Description: GSK3α kinase assay (Caliper LabChip, fluoresceinated peptide substrate). Format: biochemical. To be noted: 250 pM enzyme, 20 uM ATP, 1.5 uM peptide, 20 hours room temperature; read-out: GSK3α IC50 (second value of GSK3β/GSK3α). An excerpt:
IC50 values were derived by non-linear regression analysis.

In another experiment the target is GSK3β (Homo sapiens (Human), UniProt P49841). Description: GSK3β kinase assay (Caliper LabChip, fluoresceinated peptide substrate). The conditions noted are these: 250 pM enzyme, 20 uM ATP, 1.5 uM peptide, 20 hours room temperature; read-out: GSK3β IC50 (first value of GSK3β/GSK3α). The format is biochemical.
GSK3β, sequence (P49841 whole entry, species assumed): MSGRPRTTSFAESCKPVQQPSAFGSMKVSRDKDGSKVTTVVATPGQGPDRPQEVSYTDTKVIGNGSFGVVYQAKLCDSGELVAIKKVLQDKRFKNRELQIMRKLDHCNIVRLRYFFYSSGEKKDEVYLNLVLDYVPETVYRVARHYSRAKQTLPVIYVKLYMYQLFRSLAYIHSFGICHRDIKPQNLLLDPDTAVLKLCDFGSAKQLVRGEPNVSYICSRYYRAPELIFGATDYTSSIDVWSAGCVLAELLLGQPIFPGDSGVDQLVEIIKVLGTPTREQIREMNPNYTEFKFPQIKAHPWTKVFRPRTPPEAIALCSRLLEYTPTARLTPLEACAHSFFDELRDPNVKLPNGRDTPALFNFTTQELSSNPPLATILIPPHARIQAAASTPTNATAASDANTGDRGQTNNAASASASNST

GSK3α, sequence (P49840 whole entry, species assumed): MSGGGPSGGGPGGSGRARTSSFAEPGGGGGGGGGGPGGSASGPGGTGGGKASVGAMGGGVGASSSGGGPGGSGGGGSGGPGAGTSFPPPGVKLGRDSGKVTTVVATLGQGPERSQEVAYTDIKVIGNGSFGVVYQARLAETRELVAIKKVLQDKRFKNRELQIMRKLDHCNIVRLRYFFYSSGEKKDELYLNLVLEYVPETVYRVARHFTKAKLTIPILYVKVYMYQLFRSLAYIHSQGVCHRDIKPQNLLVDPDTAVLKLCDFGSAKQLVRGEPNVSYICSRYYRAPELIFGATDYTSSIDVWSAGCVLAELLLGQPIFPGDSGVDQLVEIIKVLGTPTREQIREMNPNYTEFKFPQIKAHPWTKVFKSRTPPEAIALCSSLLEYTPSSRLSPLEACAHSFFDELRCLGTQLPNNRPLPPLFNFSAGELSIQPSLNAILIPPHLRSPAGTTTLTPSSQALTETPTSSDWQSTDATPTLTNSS
Method for GSK3β: The kinase assay was performed in V-bottom 384-well plates. […] The reaction was incubated at room temperature for 20 hours and terminated by adding 45 μl of 35 mM EDTA to each sample. The reaction mixture was analyzed on the Caliper LabChip3000 (Caliper, Hopkinton, Mass.) by electrophoretic separation of the unphosphorylated substrate and phosphorylated product. […] Compounds were dissolved at 10 mM in dimethylsulfoxide (DMSO) and evaluated at eleven concentrations. IC50 values were derived by non-linear regression analysis.

`CC1CN(c2ccncc2NC(=O)c2ccnn3ccnc23)CCO1` (stereo not drawn) [Example 29, N-(4-(2-Methylmorpholino)pyridin-3-yl)imidazo[1,2-b]pyridazine-8-carboxamide]: the IC50 was determined as 250 nM in the experiment with pTau, 3.2 nM at GSK3α and 3.8 nM at GSK3β.
On the same counts, the results for `O=C(Nc1cnccc1-c1ccc(F)cc1)c1ccnn2cc(C3CC3)nc12` [Example 30, 2-Cyclopropyl-N-(4-(4-fluorophenyl)pyridin-3-yl)imidazo[1,2-b]pyridazine-8-carboxamide] are 380 nM, 0.4 nM and 1.9 nM.
On the same counts, the results for `O=C(Nc1cnccc1N1CCC(F)(F)CC1)c1ccnn2cc(C3CC3)nc12` [Example 31, 2-Cyclopropyl-N-(4-(4,4-difluoropiperidin-1-yl)pyridin-3-yl)imidazo[1,2-b]pyridazine-8-carboxamide] are 120 nM, 0.2 nM and 0.4 nM.
As for `CC1CN(c2ccncc2NC(=O)c2ccnn3cc(C4CC4)nc23)CCO1` (stereo not drawn) [Example 32, 2-Cyclopropyl-N-(4-(2-methylmorpholino)pyridin-3-yl)imidazo[1,2-b]pyridazine-8-carboxamide], the IC50 is 60 nM in the experiment with pTau, 0.8 nM on GSK3α and 2.6 nM at GSK3β.
For `O=C(Nc1cnccc1-c1ccc(F)cc1)c1ccnn2cc(C3=CCCCC3)nc12` [Example 33, 2-(Cyclohex-1-en-1-yl)-N-(4-(4-fluorophenyl)pyridin-3-yl)imidazo[1,2-b]pyridazine-8-carboxamide], in that order: 820 nM, 1.2 nM and 6.1 nM.
In the case of `O=C(Nc1cnccc1N1CCC(F)(F)CC1)c1ccnn2cc(C3=CCCCC3)nc12` [Example 34, 2-(Cyclohex-1-en-1-yl)-N-(4-(4,4-difluoropiperidin-1-yl)pyridin-3-yl)imidazo[1,2-b]pyridazine-8-carboxamide], the figures for the IC50 with pTau, on GSK3α and on GSK3β were 28 nM, 0.1 nM and 0.4 nM, respectively.
`CC1CN(c2ccncc2NC(=O)c2ccnn3cc(C4=CCCCC4)nc23)CCO1` (stereo not drawn) [Example 35, 2-(Cyclohex-1-en-1-yl)-N-(4-(2-methylmorpholino)pyridin-3-yl)imidazo[1,2-b]pyridazine-8-carboxamide]: the IC50 in the experiment on pTau was 160 nM; at GSK3α, 1 nM; on GSK3β, 1.6 nM.
On the same counts, the results for `CCOc1ncncc1NC(=O)c1ccnn2cc(-c3ccccc3)nc12` [Example 37, N-(4-Ethoxypyrimidin-5-yl)-2-phenylimidazo[1,2-b]pyridazine-8-carboxamide] are 620 nM, 1 nM and 5.3 nM.
For `O=C(Nc1cncnc1OCC(F)(F)F)c1ccnn2cc(-c3ccccc3)nc12` [Example 38, 2-Phenyl-N-(4-(2,2,2-trifluoroethoxy)pyrimidin-5-yl)imidazo[1,2-b]pyridazine-8-carboxamide], in that order: 330 nM, 1 nM and 3.6 nM.
For `O=C(Nc1cccnc1)c1ccnn2c(NCC3CC3)cnc12` [Example 39, 3-((Cyclopropylmethyl)amino)-N-(pyridin-3-yl)imidazo[1,2-b]pyridazine-8-carboxamide], in that order: more than 10000 nM, 900 nM and 220 nM.
Regarding `Cc1ccncc1NC(=O)c1ccnn2c(NCC3CC3)cnc12` [Example 40, 3-((Cyclopropylmethyl)amino)-N-(4-methylpyridin-3-yl)imidazo[1,2-b]pyridazine-8-carboxamide], the IC50 with pTau amounted to 3900 nM; on GSK3α, 30 nM; on GSK3β, 63 nM.
For `CC(C)Oc1ccncc1NC(=O)c1ccnn2c(NCC3CC3)cnc12` [Example 41, 3-((Cyclopropylmethyl)amino)-N-(4-isopropoxypyridin-3-yl)imidazo[1,2-b]pyridazine-8-carboxamide], in that order: 290 nM, 3.4 nM and 6.6 nM.
